{"source": "ChEMBL document CHEMBL2057199", "about": "“Development of novel M1 antagonist scaffolds through the continued optimization of the MLPCN probe ML012” (Bioorg Med Chem Lett, 2012)", "key": {"[1]": {"molecular_target": "T1, Cytochrome P450 1A2 (Homo sapiens, UniProt P05177)", "T1 sequence (P05177 whole entry)": "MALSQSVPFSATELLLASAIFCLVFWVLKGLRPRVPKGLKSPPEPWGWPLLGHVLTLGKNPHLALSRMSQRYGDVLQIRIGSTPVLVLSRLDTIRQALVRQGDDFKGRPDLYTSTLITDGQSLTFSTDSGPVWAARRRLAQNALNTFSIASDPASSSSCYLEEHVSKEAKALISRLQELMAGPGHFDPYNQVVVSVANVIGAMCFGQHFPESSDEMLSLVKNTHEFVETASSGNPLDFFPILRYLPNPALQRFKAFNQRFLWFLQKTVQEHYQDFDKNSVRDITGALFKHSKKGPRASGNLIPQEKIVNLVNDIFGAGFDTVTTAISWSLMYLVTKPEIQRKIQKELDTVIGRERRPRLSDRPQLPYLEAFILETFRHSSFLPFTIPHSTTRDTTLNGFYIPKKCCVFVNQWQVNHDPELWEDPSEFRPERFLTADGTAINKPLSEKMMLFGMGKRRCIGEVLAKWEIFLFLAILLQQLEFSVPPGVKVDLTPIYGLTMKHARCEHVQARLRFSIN", "assay": "Inhibition of CPY1A2"}, "[2]": {"molecular_target": "Cytochrome P450 3A4 (Homo sapiens, UniProt P08684)", "sequence (P08684 whole entry)": "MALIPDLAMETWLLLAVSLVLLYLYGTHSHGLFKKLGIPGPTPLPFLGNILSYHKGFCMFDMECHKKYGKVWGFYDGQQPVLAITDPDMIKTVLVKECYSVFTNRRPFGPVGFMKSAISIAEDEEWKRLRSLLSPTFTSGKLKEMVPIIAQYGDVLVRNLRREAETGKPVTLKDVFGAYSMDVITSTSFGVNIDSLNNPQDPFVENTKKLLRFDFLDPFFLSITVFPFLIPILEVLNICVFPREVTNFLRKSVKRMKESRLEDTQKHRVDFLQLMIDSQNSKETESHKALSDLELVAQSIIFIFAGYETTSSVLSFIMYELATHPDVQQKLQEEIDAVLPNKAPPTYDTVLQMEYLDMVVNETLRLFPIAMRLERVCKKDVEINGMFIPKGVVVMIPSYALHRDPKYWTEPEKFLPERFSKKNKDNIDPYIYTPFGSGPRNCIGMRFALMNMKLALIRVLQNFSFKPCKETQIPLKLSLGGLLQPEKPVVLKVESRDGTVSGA", "assay": "Inhibition of CPY3A4"}, "[3]": {"molecular_target": "T2, Muscarinic acetylcholine receptor M5 (Homo sapiens, UniProt P08912)", "T2 sequence (P08912 whole entry)": "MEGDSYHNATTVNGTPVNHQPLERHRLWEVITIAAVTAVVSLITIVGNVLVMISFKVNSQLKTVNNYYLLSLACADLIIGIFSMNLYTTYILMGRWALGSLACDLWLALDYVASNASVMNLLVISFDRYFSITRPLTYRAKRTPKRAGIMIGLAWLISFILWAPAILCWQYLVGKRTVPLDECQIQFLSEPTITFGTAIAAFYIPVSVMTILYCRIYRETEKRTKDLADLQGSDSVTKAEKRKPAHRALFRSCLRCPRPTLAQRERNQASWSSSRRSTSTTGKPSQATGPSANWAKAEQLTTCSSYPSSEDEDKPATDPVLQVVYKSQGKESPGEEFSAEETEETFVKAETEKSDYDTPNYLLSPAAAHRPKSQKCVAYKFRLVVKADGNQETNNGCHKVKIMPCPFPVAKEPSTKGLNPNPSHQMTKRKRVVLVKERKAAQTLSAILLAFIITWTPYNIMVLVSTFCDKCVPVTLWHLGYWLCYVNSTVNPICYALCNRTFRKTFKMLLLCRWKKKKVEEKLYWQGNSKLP", "assay": "Antagonist activity at human muscarinic M5 receptor assessed as inhibition of acetylcholine-induced calcium mobilization", "type": "functional"}, "[4]": {"system": "Plasma", "assay": "Fraction unbound in human plasma", "type": "ADME, cell-free"}, "[5]": {"molecular_target": "Muscarinic acetylcholine receptor M3 (Homo sapiens, UniProt P20309)", "sequence (P20309 whole entry)": "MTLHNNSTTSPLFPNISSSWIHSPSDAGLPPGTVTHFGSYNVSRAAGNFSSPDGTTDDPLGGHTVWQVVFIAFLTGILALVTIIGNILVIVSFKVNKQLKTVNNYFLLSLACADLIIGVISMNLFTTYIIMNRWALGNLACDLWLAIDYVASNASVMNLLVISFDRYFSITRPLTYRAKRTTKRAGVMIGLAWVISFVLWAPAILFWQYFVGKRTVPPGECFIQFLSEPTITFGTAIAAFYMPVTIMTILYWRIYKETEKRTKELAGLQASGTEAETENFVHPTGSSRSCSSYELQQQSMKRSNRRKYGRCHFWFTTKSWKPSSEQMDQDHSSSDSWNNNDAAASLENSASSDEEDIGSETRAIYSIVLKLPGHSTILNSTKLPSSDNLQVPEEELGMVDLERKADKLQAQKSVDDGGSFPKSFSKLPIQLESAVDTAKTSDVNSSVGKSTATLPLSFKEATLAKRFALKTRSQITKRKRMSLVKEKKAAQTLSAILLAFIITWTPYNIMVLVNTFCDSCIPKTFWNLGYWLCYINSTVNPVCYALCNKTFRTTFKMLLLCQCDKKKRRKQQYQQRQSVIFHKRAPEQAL", "assay": "Antagonist activity at human muscarinic M3 receptor assessed as inhibition of acetylcholine-induced calcium mobilization", "type": "functional"}, "[6]": {"molecular_target": "T3, Muscarinic acetylcholine receptor M1 (Homo sapiens, UniProt P11229)", "T3 sequence (P11229 whole entry)": "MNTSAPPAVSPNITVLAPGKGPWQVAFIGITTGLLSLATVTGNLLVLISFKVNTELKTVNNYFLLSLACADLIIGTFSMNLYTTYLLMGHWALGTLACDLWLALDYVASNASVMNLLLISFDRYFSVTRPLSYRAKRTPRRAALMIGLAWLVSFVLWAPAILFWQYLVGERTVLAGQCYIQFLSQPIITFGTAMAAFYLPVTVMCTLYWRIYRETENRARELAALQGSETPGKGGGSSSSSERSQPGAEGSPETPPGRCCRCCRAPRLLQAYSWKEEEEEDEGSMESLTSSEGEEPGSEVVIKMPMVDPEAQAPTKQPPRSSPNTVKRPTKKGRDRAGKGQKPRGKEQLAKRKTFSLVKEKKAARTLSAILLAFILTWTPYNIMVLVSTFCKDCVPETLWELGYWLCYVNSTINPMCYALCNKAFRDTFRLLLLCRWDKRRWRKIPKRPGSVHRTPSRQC", "assay": "(§1) Antagonist activity at human muscarinic M1 receptor expressed in CHO cells assessed as inhibition of acetylcholine-induced calcium mobilization by fluorescence analysis", "type": "functional, cell-based", "settings": "read-out: IC50"}, "[7]": {"molecular_target": "T4, Muscarinic acetylcholine receptor M1 (Homo sapiens) (UniProt P11229)", "T4 sequence (whole entry)": "T3 sequence (P11229 whole entry)", "assay": "as §1", "type": "functional, cell-based"}, "[8]": {"molecular_target": "T4, Muscarinic acetylcholine receptor M1 (Homo sapiens)", "assay": "Antagonist activity at human muscarinic M1 receptor expressed in CHO cells assessed as inhibition of acetylcholine-induced calcium mobilization at 30 uM measured after 15 mins by fluorescence analysis", "type": "functional, cell-based", "design": "scale not given: the % may be the effect or the level left"}, "[9]": {"molecular_target": "T4, Muscarinic acetylcholine receptor M1 (Homo sapiens)", "assay": "Displacement of [3H]NMS from human muscarinic M1 receptor"}, "[10]": {"molecular_target": "T4, Muscarinic acetylcholine receptor M1 (Homo sapiens)", "assay": "Antagonist activity at human muscarinic M1 receptor assessed as rightward shift in acetylcholine concentration response curve", "type": "functional"}, "[11]": {"system": "Plasma", "assay": "Fraction unbound in rat plasma", "type": "ADME, cell-free"}, "[12]": {"molecular_target": "T5, Muscarinic acetylcholine receptor M4 (Homo sapiens, UniProt P08173)", "T5 sequence (P08173 whole entry)": "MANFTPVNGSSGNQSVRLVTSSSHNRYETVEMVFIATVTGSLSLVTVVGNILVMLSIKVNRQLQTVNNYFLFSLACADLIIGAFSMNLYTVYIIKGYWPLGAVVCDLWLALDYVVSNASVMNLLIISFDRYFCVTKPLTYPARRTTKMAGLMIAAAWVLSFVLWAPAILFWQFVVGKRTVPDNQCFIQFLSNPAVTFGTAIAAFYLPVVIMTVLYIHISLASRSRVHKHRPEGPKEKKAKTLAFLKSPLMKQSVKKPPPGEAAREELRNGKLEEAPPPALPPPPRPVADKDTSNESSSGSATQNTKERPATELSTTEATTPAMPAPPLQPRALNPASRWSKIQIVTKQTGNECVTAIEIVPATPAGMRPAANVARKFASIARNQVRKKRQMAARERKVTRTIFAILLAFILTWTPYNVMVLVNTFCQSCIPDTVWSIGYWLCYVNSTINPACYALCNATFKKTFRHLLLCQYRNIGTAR", "assay": "Antagonist activity at human muscarinic M4 receptor assessed as inhibition of acetylcholine-induced calcium mobilization", "type": "functional"}, "[13]": {"molecular_target": "Cytochrome P450 2D6 (Homo sapiens, UniProt P10635)", "sequence (P10635 whole entry)": "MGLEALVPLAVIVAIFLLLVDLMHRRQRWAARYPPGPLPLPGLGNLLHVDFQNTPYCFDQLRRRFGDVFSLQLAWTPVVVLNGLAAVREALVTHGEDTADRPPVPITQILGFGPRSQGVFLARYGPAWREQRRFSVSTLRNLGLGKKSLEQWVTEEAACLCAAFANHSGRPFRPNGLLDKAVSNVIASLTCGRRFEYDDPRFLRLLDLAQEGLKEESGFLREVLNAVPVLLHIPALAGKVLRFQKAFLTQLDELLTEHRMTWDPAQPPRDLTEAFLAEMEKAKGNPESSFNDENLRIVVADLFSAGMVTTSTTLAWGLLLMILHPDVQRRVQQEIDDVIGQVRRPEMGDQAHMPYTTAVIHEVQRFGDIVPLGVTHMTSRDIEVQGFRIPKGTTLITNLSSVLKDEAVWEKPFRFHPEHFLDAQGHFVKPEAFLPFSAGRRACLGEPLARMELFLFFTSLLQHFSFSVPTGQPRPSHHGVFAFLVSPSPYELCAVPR", "assay": "Inhibition of CPY2D6"}, "[14]": {"assay": "Plasma clearance in iv dosed rat", "type": "ADME, organism-based"}, "[15]": {"system": "Brain", "assay": "Fraction unbound in rat brain homogenate", "type": "ADME, tissue-based"}, "[16]": {"molecular_target": "Cytochrome P450 2C9 (Homo sapiens, UniProt P11712)", "sequence (P11712 whole entry)": "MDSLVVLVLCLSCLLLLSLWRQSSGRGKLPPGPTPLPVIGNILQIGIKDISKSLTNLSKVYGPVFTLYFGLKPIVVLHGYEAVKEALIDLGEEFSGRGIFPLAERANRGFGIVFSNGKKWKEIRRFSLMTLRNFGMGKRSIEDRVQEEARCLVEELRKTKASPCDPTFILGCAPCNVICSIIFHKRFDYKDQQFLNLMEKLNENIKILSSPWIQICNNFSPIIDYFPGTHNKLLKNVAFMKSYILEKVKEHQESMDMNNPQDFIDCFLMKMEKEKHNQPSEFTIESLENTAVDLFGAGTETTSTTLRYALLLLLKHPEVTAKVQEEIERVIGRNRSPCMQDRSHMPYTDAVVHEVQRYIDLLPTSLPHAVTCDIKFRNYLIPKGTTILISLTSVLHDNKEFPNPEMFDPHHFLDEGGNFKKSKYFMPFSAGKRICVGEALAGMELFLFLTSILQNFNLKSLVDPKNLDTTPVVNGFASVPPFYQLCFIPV", "assay": "Inhibition of CPY2C9"}, "[17]": {"molecular_target": "T6, Muscarinic acetylcholine receptor M2 (Homo sapiens, UniProt P08172)", "T6 sequence (P08172 whole entry)": "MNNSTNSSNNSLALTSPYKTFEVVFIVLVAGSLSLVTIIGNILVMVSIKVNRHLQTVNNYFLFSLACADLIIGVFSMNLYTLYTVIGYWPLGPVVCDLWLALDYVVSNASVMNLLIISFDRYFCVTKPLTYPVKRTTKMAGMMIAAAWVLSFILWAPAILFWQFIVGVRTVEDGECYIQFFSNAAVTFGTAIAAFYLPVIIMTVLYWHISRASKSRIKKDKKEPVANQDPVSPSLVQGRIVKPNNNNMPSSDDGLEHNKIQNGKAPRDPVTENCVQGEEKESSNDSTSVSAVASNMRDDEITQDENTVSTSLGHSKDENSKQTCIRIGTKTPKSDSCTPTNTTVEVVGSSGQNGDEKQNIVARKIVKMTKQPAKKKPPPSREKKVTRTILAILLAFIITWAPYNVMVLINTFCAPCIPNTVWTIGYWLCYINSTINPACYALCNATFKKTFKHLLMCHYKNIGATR", "assay": "Antagonist activity at human muscarinic M2 receptor assessed as inhibition of acetylcholine-induced calcium mobilization", "type": "functional"}}, "note": "The source made the active and inactive calls. The calls are words filed in the database; no cut-off is given here."}
{"smiles": "O=C(C1CN(S(=O)(=O)c2cccc3cnccc23)C1)N1CC2CN(c3ccncc3)CC2C1", "note": "(configuration not stated)", "values": [{"measurement": "IC50", "setting": "[1]", "value": "> 30", "unit": "µM"}, {"measurement": "IC50", "setting": "[2]", "value": "< 2.5", "unit": "µM"}, {"measurement": "IC50", "setting": "[3]", "value": "> 10", "unit": "µM"}, {"measurement": "Fu", "setting": "[4]", "value": 0.9, "unit": "%"}, {"measurement": "IC50", "setting": "[5]", "value": "> 10", "unit": "µM"}, {"measurement": "IC50", "setting": "[6]", "value": 0.23, "unit": "µM"}, {"measurement": "inhibition", "setting": "[7]", "value": "Dose-dependent effect"}, {"measurement": "Activity", "setting": "[8]", "value": 2.8, "unit": "%"}, {"measurement": "Activity", "setting": "[9]", "value": "Active"}, {"measurement": "Activity", "setting": "[10]", "value": "Active"}, {"measurement": "Fu", "setting": "[11]", "value": 0.6, "unit": "%"}, {"measurement": "IC50", "setting": "[12]", "value": "> 10", "unit": "µM"}, {"measurement": "IC50", "setting": "[13]", "value": "< 2.5", "unit": "µM"}, {"measurement": "clearance", "setting": "[14]", "value": 68.6, "unit": "mL/min/kg"}, {"measurement": "Fu", "setting": "[15]", "value": 0.08, "unit": "%"}, {"measurement": "IC50", "setting": "[16]", "value": "< 2.5", "unit": "µM"}, {"measurement": "IC50", "setting": "[17]", "value": "> 10", "unit": "µM"}]}
